Test results as given in BindingDB's records for PubMed 38118394 (Second Military Medical University (Naval Medical …).
Peptide text beside a SMILES is read from it.

molecular target: Glypican-3 (Homo sapiens, UniProt P51654); test: Binding affinity to GPC3 (unknown origin) assessed as dissociation constant by fluorescence polarization assay
Sequence (P51654 25-358 limits assumed): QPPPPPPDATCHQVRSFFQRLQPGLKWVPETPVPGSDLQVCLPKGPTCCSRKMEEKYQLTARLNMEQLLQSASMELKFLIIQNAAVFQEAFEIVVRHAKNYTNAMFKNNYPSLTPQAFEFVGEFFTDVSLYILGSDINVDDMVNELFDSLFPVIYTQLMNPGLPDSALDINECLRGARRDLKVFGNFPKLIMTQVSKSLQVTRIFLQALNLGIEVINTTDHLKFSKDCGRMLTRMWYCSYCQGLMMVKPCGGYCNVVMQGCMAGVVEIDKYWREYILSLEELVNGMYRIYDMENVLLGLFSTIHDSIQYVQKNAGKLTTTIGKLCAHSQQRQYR
Sequence (P51654 359-554 limits assumed): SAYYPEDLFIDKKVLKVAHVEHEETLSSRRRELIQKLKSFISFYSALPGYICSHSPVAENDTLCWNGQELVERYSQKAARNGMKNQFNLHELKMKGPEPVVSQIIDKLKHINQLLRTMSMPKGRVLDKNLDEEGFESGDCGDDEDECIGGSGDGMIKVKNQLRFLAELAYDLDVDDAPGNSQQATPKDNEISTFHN

Kd, 300 nM:
C=Cc1c(C)c2cc3nc(c(CC(=O)O)c4[nH]c(cc5nc(cc1[nH]2)C(C)=C5CC)c(C)c4C(=O)NCCCC(=O)N[C@@H](CC(=O)O)C(=O)N[C@@H](Cc1ccc(O)cc1)C(=O)N[C@@H](CCC(=O)O)C(=O)N[C@@H](CCSC)C(=O)N[C@@H](Cc1cnc[nH]1)C(=O)N[C@@H](CC(C)C)C(=O)N[C@@H](Cc1c[nH]c2ccccc12)C(=O)N[C@@H](Cc1c[nH]c2ccccc12)C(=O)NCC(=O)N[C@H](C(=O)N[C@@H](CCC(=O)O)C(=O)N[C@@H](CC(C)C)C(=O)O)[C@@H](C)O)[C@@H](CCC(=O)O)[C@@H]3C (HELM PEPTIDE1{[C=Cc1c(C)c2cc3nc(c(CC(=O)O)c4[nH]c(cc5nc(cc1[nH]2)C(C)=C5CC)c(C)c4C(=O)[*:2])[C@@H](CCC(=O)O)[C@@H]3C].[O=C(CCCN[*:1])[*:2]].D.Y.E.M.H.L.W.W.G.T.E.L}$$$$V2.0)
C=Cc1c(C)c2cc3nc(c(CC(=O)O)c4[nH]c(cc5nc(cc1[nH]2)C(C)=C5CC)c(C)c4C(=O)NCCCC(=O)N[C@@H](CCCCN)C(=O)N[C@@H](CCCCN)C(=O)N[C@@H](CCCCN)C(=O)N[C@@H](CCCNC(=N)N)C(=O)N[C@@H](CC(C)C)C(=O)N[C@@H](CC(N)=O)C(=O)N[C@H](C(=O)NCC(=O)NCC(=O)N[C@H](C(=O)N[C@@H](Cc1ccc(O)cc1)C(=O)N[C@@H](Cc1ccccc1)C(=O)N[C@@H](CC(C)C)C(=O)N[C@H](C(=O)N[C@H](C(=O)N[C@@H](CCCNC(=N)N)C(=O)N[C@@H](CCC(N)=O)C(=O)O)[C@@H](C)O)[C@@H](C)O)[C@@H](C)O)C(C)C)[C@@H](CCC(=O)O)[C@@H]3C (HELM PEPTIDE1{[C=Cc1c(C)c2cc3nc(c(CC(=O)O)c4[nH]c(cc5nc(cc1[nH]2)C(C)=C5CC)c(C)c4C(=O)[*:2])[C@@H](CCC(=O)O)[C@@H]3C].[O=C(CCCN[*:1])[*:2]].K.K.K.R.L.N.V.G.G.T.Y.F.L.T.T.R.Q}$$$$V2.0)
C=Cc1c(C)c2cc3nc(c(CC(=O)O)c4[nH]c(cc5nc(cc1[nH]2)C(C)=C5CC)c(C)c4C(=O)NCCCC(=O)N[C@@H](CCCNC(=N)N)C(=O)N[C@@H](CC(C)C)C(=O)N[C@@H](CC(N)=O)C(=O)N[C@H](C(=O)NCC(=O)NCC(=O)N[C@H](C(=O)N[C@@H](Cc1ccc(O)cc1)C(=O)N[C@@H](Cc1ccccc1)C(=O)N[C@@H](CC(C)C)C(=O)N[C@H](C(=O)N[C@H](C(=O)N[C@@H](CCCNC(=N)N)C(=O)N[C@@H](CCC(N)=O)C(=O)O)[C@@H](C)O)[C@@H](C)O)[C@@H](C)O)C(C)C)[C@@H](CCC(=O)O)[C@@H]3C (HELM PEPTIDE1{[C=Cc1c(C)c2cc3nc(c(CC(=O)O)c4[nH]c(cc5nc(cc1[nH]2)C(C)=C5CC)c(C)c4C(=O)[*:2])[C@@H](CCC(=O)O)[C@@H]3C].[O=C(CCCN[*:1])[*:2]].R.L.N.V.G.G.T.Y.F.L.T.T.R.Q}$$$$V2.0)
